Common to all, as to assay: KINOMEscan (ScanMAX) kinase profiling
What all share (type): binding

The target of assay [1] is T1, panel of 468 kinases (Homo sapiens, UniProt Q15746).
T1 construct: purchased KINOMEscan (ScanMAX) service
The note with it: MYLK; 1 μM; read-out: % control.

The target in assay [2] is T2, panel of 468 kinases (Homo sapiens, UniProt P24941).
T2 construct: purchased KINOMEscan (ScanMAX) service
Conditions: CDK2; 1 μM; read-out: % control.

Assay [3] concerns the target T3, panel of 468 kinases (Homo sapiens, UniProt Q8TDC3).
T3 construct: purchased KINOMEscan (ScanMAX) service
T3 sequence (Q8TDC3 1-778): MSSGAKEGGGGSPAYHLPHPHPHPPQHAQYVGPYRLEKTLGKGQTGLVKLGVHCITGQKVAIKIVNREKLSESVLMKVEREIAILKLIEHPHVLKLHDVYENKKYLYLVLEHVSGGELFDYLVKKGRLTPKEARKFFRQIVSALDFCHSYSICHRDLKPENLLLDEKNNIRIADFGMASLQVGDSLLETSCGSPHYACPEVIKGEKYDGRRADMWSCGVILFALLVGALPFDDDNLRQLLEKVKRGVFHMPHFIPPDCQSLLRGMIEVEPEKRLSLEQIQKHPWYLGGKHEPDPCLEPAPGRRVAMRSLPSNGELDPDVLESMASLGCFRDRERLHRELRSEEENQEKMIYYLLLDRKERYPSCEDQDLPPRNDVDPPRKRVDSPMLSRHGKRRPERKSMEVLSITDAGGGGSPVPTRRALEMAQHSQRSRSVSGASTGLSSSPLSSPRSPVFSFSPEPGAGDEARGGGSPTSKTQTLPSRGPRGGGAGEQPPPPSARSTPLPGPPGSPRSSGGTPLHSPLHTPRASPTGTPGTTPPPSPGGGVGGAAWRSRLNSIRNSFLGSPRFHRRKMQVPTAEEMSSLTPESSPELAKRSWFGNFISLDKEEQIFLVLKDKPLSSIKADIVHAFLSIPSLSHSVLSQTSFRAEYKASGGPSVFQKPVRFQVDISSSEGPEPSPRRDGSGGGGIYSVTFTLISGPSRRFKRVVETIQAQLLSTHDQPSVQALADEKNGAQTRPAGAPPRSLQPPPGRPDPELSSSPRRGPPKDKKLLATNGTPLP
The note with it: BRSK1; 1 μM; read-out: % control.

Assay [4] addresses T4, panel of 468 kinases (Homo sapiens, UniProt P42345).
T4 construct: purchased KINOMEscan (ScanMAX) service
The note with it: MTOR; 1 μM; read-out: % control.

Assay [5] has as its target T5, panel of 468 kinases (Homo sapiens, UniProt Q07912).
T5 construct: purchased KINOMEscan (ScanMAX) service
Conditions: TNK2; 1 μM; read-out: % control.

For assay [6], the target named is T6, panel of 468 kinases (Homo sapiens, UniProt O95382).
T6 construct: purchased KINOMEscan (ScanMAX) service
T6 sequence (O95382 1-1288): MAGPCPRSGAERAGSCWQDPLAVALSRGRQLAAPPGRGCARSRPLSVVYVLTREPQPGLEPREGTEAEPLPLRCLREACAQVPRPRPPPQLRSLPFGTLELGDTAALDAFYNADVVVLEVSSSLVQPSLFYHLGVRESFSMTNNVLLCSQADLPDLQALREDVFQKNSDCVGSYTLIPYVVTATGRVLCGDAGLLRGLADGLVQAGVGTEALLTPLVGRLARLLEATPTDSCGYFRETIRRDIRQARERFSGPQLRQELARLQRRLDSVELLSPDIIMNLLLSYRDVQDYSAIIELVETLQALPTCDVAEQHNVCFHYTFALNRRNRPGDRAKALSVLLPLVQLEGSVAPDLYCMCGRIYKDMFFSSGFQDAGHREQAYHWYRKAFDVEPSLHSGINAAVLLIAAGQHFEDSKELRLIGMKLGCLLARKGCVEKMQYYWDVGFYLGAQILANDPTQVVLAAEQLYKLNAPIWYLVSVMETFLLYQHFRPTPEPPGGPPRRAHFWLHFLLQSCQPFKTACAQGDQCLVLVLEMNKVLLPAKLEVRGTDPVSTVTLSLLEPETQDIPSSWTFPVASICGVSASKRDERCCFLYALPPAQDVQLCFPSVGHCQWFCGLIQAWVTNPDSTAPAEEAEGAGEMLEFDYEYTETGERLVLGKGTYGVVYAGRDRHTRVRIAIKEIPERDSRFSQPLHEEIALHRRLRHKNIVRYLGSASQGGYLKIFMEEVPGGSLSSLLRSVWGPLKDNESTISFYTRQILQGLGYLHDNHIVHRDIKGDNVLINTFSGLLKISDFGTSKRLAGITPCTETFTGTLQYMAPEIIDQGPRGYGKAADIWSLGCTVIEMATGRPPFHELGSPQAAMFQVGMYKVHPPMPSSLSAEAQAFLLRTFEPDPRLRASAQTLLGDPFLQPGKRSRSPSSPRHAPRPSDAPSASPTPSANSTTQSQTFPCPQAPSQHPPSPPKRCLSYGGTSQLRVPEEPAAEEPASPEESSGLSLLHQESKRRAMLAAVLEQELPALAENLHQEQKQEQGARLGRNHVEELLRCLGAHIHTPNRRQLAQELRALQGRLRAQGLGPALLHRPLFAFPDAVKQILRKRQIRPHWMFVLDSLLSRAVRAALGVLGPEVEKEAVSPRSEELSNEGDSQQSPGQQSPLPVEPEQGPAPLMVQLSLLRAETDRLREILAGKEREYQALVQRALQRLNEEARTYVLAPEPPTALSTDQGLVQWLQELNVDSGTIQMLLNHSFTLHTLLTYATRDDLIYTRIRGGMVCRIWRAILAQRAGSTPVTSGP
The note with it: ASK2; 1 μM; read-out: % control.

The target of assay [7] is T7, panel of 468 kinases (Homo sapiens, UniProt Q8N568).
T7 construct: purchased KINOMEscan (ScanMAX) service
The note with it: DCAMKL2; 1 μM; read-out: % control.

Assay [8] concerns the target T8, panel of 468 kinases (Homo sapiens, UniProt Q92918).
T8 construct: purchased KINOMEscan (ScanMAX) service
Conditions: HPK1; 1 μM; read-out: % control.

SMILES strings stand for the structures.

T5 sequence (Q07912 whole entry): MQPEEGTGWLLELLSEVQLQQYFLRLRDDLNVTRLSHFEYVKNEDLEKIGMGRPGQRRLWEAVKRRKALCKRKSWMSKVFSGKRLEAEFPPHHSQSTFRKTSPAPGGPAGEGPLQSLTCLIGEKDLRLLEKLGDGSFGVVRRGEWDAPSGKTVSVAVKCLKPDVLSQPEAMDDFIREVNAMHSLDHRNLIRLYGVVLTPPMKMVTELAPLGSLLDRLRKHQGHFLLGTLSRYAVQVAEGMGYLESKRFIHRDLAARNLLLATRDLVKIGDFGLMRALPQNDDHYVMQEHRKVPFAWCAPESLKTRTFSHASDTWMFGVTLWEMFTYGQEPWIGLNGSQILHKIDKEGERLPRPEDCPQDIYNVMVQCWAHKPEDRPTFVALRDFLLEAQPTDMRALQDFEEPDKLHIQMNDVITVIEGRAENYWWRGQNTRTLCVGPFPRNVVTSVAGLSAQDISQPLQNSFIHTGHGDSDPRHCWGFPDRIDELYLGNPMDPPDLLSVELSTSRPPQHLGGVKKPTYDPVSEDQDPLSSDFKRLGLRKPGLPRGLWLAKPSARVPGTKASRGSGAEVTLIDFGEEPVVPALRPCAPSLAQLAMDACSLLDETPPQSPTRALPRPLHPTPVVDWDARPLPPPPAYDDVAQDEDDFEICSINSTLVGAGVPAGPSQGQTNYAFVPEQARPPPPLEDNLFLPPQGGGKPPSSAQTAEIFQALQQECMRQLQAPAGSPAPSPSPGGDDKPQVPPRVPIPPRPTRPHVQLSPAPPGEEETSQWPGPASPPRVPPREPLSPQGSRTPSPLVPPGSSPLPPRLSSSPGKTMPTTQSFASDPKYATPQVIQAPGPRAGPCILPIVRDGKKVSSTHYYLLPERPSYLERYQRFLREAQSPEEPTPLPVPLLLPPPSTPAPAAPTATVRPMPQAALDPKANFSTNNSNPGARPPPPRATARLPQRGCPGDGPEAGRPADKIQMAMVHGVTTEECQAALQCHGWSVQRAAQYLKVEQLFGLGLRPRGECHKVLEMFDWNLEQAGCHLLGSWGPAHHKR
T8 sequence (Q92918 whole entry): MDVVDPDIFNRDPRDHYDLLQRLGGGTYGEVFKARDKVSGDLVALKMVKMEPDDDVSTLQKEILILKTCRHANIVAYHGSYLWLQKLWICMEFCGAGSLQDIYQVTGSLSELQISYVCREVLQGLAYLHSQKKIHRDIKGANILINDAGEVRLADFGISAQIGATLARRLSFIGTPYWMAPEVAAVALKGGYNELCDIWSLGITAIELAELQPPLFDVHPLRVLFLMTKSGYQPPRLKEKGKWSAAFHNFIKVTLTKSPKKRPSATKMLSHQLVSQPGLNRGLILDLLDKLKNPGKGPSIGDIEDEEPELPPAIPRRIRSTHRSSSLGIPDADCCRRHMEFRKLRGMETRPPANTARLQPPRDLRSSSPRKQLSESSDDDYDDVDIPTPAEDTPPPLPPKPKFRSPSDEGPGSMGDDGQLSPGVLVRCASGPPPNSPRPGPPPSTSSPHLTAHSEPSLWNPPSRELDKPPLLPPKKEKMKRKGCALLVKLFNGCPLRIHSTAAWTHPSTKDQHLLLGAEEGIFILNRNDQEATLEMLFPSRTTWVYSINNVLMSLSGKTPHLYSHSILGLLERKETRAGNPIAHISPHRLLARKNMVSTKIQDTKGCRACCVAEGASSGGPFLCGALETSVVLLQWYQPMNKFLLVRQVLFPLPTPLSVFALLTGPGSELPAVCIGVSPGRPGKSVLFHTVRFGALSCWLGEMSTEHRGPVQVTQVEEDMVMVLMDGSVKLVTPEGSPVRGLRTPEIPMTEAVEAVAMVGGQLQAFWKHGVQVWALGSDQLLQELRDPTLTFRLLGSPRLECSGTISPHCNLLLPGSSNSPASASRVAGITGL
T7 sequence (Q8N568 whole entry): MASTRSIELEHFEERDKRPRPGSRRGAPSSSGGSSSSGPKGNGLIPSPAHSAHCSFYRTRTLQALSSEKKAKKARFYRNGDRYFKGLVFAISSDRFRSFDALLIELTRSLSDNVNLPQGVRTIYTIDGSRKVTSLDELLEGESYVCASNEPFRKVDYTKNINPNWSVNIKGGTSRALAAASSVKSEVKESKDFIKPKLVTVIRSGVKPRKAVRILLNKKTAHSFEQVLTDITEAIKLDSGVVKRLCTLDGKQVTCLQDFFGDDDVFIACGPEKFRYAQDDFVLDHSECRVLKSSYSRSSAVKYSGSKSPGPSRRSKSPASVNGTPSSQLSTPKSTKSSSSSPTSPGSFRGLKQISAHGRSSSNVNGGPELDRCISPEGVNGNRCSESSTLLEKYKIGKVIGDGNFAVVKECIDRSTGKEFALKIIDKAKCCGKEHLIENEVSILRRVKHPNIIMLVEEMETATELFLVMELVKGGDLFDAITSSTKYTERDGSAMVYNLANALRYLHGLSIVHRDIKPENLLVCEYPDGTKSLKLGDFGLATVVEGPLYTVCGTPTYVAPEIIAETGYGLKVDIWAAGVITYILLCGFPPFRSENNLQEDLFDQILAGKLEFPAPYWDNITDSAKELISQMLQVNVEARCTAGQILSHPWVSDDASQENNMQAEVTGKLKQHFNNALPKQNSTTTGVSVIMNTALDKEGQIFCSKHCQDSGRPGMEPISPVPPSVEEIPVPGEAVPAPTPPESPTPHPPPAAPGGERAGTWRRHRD
T1 sequence (Q15746 whole entry): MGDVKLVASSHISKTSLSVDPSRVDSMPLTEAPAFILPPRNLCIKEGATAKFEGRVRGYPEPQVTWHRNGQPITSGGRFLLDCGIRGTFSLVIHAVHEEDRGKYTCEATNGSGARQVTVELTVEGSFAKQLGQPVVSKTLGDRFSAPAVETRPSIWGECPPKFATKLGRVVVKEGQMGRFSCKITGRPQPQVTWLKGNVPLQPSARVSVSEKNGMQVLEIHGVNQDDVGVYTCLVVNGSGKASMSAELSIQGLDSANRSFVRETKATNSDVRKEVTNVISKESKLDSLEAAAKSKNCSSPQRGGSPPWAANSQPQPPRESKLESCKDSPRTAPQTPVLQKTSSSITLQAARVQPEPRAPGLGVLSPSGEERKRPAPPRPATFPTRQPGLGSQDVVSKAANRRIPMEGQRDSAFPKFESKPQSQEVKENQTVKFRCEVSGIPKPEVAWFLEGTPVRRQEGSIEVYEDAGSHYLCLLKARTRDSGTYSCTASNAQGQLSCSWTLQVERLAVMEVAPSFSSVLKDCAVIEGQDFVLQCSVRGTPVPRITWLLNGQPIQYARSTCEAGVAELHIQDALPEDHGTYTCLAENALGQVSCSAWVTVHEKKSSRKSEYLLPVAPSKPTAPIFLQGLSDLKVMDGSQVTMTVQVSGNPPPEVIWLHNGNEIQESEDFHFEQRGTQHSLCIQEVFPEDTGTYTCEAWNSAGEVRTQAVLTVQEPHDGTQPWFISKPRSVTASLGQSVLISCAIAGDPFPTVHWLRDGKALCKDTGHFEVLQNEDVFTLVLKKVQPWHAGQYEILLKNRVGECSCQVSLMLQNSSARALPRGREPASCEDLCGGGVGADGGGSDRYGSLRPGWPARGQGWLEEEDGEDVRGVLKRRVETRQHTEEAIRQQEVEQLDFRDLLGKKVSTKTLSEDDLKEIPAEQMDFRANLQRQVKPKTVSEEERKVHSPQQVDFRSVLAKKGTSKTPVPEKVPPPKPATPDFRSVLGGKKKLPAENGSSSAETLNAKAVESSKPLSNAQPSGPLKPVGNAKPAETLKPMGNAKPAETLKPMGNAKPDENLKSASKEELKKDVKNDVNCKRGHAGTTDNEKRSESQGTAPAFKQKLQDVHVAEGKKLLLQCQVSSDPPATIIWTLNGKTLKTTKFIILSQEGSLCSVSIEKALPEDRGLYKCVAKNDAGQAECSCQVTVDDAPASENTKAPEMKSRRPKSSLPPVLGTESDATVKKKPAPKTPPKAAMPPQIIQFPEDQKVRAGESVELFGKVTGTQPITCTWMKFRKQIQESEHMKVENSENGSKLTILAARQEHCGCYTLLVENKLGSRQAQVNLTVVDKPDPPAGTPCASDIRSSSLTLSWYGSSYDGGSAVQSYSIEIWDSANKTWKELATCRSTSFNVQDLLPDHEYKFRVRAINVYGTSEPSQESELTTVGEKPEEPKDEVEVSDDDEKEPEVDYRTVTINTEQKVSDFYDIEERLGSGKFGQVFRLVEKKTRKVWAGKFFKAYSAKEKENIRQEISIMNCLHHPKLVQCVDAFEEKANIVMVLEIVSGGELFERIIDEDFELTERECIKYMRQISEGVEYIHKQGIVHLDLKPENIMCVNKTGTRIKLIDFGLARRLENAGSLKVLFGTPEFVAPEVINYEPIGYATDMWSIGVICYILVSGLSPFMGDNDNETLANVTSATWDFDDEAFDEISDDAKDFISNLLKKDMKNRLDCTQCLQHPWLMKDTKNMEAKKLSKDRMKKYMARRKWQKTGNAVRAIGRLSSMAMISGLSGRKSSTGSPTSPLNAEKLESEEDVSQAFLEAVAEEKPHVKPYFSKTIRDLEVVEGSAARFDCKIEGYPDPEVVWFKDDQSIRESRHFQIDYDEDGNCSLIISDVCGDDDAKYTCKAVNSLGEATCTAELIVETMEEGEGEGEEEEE

Consider `CNc1nc(Nc2ccc(S(=O)(=O)N3CCC(N4CCOCC4)CC3)cc2OC)nc2[nH]cc(Cl)c12` [Compound 12, 5-chloro-N2-(2-methoxy-4-((4-morpholinopiperidin-1-yl)sulfonyl)phenyl)-N4-methyl-7H-pyrrolo[2,3-d]pyrimidine-2,4-diamine], for which the remaining binding at 1 µM turned out to be 8.8% at panel of 468 kinases [1]; 100% at panel of 468 kinases [2]; 100% at panel of 468 kinases [3]; 67% on panel of 468 kinases [4]; 100% on panel of 468 kinases [5]; 53% on panel of 468 kinases [6]. The remaining binding at 1 µM at panel of 468 kinases [7] was 96%; at panel of 468 kinases [8], 78%.
On to `CNc1nc(Nc2ccc(P3(=O)CCN(C4CCOCC4)CC3)cc2OC)nc2[nH]cc(Cl)c12` [Compound 77, 4-(4-((5-chloro-4-(methylamino)-7H-pyrrolo[2,3-d]pyrimidin-2-yl)amino)-3-methoxyphenyl)-1-(tetrahydro-2H-pyran-4-yl)-1,4-azaphosphinane 4-oxide], for which the remaining binding at 1 µM at panel of 468 kinases [1] was 0.05%; at panel of 468 kinases [2], 100%; on panel of 468 kinases [3], 96%; at panel of 468 kinases [4] it was 84%; at panel of 468 kinases [5], 81%; on panel of 468 kinases [6] it was 51%. In addition, the remaining binding at 1 µM was 100% at panel of 468 kinases [7] and 97% at panel of 468 kinases [8].
For the compound `CNc1nc(Nc2ccc(C(=O)N3CCC(N4CCOCC4)CC3)c3c2OCO3)nc2[nH]cc(Cl)c12` [Compound 75, (7-((5-chloro-4-(methylamino)-7H-pyrrolo[2,3-d]pyrimidin-2-yl)amino)benzo[d][1,3]dioxol-4-yl)(4-morpholinopiperidin-1-yl)methanone], the remaining binding at 1 µM on panel of 468 kinases [1] is 18%; at panel of 468 kinases [2], 100%; at panel of 468 kinases [3], 100%; on panel of 468 kinases [4], 79%; on panel of 468 kinases [5] it was 100%; on panel of 468 kinases [6], 39%. Besides, the remaining binding at 1 µM was found to be 99% at panel of 468 kinases [7] and 47% at panel of 468 kinases [8].
